Experimental data from US20150087627A1, “COMBINATION OF KINASE INHIBITORS AND USES THEREOF” (Intellikine LLC, priority 2011, published 2015).

Legend:
[1] = tested on: MDA-MB-361 (PI3Kα/HER2 carcinoma) tumors; experiment: In vivo efficacy in xenogenic mouse model of breast cancer; set-up: species or system Nude mice; details: 60 mg/kg, FIG. 9 left panel
Method: Blood glucose was monitored periodically following administration of treatment.
Treatment of tumors (MDA-MB-361) with compounds was discontinued on Day 30. Tumors were measured every 2-5 days.

[2] = Steady state blood glucose in nude mice (Example 41); assay type: in vivo, Mus musculus; details: mean AUC after the last dose (Day 28)
Method: Blood glucose levels were measured via a tail knick using Abbott's “Freestyle Lite” Handheld Blood Glucose Monitor (Abbott Laboratories) at 15, 30, 60, 90, 120, and 1440 minutes after the last dose (Day 28).

[3] = tested on: preclinical breast cancer model; experiment: Preclinical breast cancer model, tumor weight / volume; assay type: in vivo; details: 70 mg/kg Pan-PI3K inhibitor; 60 mg/kg compound A; FIG. 9 left panel
[4] = tested on: tumor cells harboring PI3K α mutations; experiment: Tumor cell proliferation panel (FIG. 13); assay type: cell-based
B cell function = experiment: TNP-Ficoll immunization, antibody production (FIG. 8); assay type: in vivo; details: mice immunized with TNP-Ficoll, 7 days, 70 mg/kg GDC0941, 30, 60 or 120 mg/kg Compound A
Method: Mice were immunized with TNP-Ficoll and treated with 1) vehicle; 2) 70 mg/kg GDC0941; 3) 30 mg/kg Compound A; 4) 60 mg/kg Compound A; or 5) 120 mg/kg Compound A for 7 days. Antibody production was measured as a percentage of control group that were treated with vehicle.

PC3 cells = experiment: Proliferation of tumor cells (CellTiter-Glo); assay type: cell-based, human; details: read-out: cell proliferation IC50
Method: Cells comprising one or more mutations in PI3Kα, including but not limited to breast cancer cells (e.g., MDA-MB-361, T47D, SKOV-3), and cells comprising one or more mutations in PTEN including but not limited to prostate cancer cells (e.g., PC3), are typically grown in cell growth media such as DMEM supplemented with fetal bovine serum and/or antibiotics, and grown to confluency. Cells are then treated with various concentrations of test compound for about 2 hours and subsequently lysed in cell lysis buffer. Lysates are subjected to SDS-PAGE followed by Western blot analysis to detect downstream signaling markers, including but not limited to pAKT(S473), pAKT(T308), pS6, and p4E-BP1.
Cells were seeded at 5000-10,000 per well in a 96 well flat bottom plate 90 ul growth media. Pre-diluted compound (at 10 times the final concentration) or DMSO (control) was added. The compounds were prepared such that the dose range extended from a final concentration of 30 μM to 14 nM via 3-fold serial dilutions (8 point curve). The final DMSO concentration was 0.3%. Cells were incubated for 72 hours at 37° C. in a CO2 incubator. After 72 hours, proliferation was measured using CellTiter-Glo Luminescent reagent (Promega, PR-G7573). […] Luminescence was read on a PerkinElmer EnVision plate reader. […] Inhibition % was calculated as: 1−(cells+inhibitor)−background signal)/(cells+DMSO)−background signal)×100.

PI3K α (p110α/p85α) = target: T1, PI3K α (p110α/p85α) (Homo sapiens, UniProt P42336); experiment: PI 3-Kinase (human) HTRF assay, PI3K α; assay type: biochemical; details: over mTOR and other PI3K isoforms; FIG. 6C
T1 construct: purchased Upstate / Millipore Corporation

[5] = tested on: MDA-MB-361, MDA-MB-453 and SKBr3 breast cancer cells; experiment: Western blot of PI3K pathway in cell lines with elevated PI3K α activity (FIG. 11); assay type: cell-based; details: cell lines with elevated PI3K α activity: MDA-MB-361, MDA-MB-453 (PIK3CA mutation), SKBr3 (HER2)
[6] = tested on: Akt phosphorylation at serine 473; experiment: Western blot of Akt phosphorylation at serine 473 (FIG. 12); assay type: cell-based
[7] = tested on: mTORC1-dependent NRDG1 phosphorylation; experiment: Western blot of NRDG1 phosphorylation (FIG. 5B); assay type: cell-based
Akt phosphorylation = experiment: Western blot of Akt phosphorylation at serine 473 and threonine 308 (FIG. 7); assay type: cell-based; details: serine 473 versus threonine 308

T1 sequence (P42336 whole entry, canonical isoform): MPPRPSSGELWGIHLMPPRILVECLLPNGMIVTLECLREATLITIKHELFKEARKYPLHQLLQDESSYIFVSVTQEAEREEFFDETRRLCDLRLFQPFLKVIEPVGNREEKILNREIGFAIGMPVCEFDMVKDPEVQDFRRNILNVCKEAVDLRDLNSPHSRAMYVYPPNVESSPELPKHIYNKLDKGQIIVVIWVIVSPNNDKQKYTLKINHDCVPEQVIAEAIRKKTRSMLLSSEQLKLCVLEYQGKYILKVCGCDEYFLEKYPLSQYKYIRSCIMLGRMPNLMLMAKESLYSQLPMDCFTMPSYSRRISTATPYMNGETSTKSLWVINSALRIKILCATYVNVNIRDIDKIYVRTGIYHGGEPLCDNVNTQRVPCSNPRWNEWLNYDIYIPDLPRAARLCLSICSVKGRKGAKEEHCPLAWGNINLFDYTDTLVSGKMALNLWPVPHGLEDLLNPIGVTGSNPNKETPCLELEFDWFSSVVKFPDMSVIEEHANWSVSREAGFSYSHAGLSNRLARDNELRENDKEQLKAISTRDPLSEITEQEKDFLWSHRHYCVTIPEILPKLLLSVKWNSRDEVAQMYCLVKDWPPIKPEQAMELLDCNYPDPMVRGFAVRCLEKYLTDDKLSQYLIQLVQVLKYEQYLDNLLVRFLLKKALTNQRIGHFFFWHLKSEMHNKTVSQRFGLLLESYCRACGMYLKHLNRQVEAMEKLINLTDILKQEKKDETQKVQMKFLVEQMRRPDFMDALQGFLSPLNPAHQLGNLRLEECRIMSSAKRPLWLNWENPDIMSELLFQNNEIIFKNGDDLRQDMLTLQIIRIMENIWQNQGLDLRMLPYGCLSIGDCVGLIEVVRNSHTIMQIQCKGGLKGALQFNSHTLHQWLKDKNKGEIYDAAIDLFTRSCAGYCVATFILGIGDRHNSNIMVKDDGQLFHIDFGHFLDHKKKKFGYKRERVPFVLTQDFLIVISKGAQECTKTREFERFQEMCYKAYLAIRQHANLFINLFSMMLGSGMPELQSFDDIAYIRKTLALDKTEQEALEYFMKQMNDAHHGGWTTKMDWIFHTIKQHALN
T1 sequence (P27986 whole entry partner, canonical isoform): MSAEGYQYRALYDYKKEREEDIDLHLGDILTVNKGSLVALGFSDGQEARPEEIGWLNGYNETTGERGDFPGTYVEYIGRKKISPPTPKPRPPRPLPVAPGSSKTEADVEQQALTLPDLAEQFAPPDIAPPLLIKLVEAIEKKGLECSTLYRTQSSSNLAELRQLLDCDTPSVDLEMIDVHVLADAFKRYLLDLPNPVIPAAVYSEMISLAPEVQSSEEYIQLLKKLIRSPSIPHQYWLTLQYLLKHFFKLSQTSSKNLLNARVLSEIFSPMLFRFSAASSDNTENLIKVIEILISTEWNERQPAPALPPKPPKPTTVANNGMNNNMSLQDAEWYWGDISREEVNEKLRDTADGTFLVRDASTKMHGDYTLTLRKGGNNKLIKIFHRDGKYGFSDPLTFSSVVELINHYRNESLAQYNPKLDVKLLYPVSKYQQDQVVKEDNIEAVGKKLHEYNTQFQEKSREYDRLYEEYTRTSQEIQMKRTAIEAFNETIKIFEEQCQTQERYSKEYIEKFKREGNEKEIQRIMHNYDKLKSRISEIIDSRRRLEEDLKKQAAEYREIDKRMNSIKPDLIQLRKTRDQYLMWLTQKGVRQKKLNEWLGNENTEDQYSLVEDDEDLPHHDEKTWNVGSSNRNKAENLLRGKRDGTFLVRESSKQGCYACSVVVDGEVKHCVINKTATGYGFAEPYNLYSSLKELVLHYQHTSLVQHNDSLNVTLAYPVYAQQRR

| SMILES | tumor weight [1] | Blood Glucose Fold Over Vehicle Control ([2]; 60 mg/kg QD) | Blood Glucose Fold Over Vehicle Control ([2]; 70 mg/kg QD 3on/4off) | Blood Glucose Fold Over Vehicle Control ([2]; 140 mg/kg QD 3on/4off) | Blood Glucose Fold Over Vehicle Control ([2]; 210 mg/kg QW) | tumor weight of a breast cancer model [3] | proliferation of tumor cells [4] | B cell function in vivo (antibody production as percentage of vehicle control) (B cell function) | IC50 (PC3 cells) | specificity in inhibiting PI3K α (PI3K α (p110α/p85α)) | inhibition of the PI3K pathway [5] | Akt phosphorylation at serine 473 ([6]; PTEN-mutant cell line, FIG. 12B) | Akt phosphorylation at serine 473 ([6]; western blot, FIG. 12A) | sensitivity of mTORC1-dependent NRDG1 phosphorylation [7] | inhibition of Akt phosphorylation (Akt phosphorylation) |
| --- | --- | --- | --- | --- | --- | --- | --- | --- | --- | --- | --- | --- | --- | --- | --- |
| Nc1nc2cc(-c3ccc4ncc(C(=O)N5CCOCC5)n4c3)ccc2o1 [Compound A] | reduction in tumor weight | 0.97 fold | 1.02 fold | 1.26 fold | 1.16 fold | reduction in tumor weight | preferentially inhibits proliferation of tumor cells harboring PI3K α mutations | not | > 10 µM | specificity of Compound A in inhibiting PI3K α over mTOR and other PI3K isoforms | inhibition of the PI3K pathway | reduced inhibition of Akt phosphorylation at serine 473 | inhibition of Akt phosphorylation at serine 473 |  |  |
| CC(C)n1nc(-c2ccc3oc(N)nc3c2)c2c(N)ncnc21 [Compound B] |  |  |  |  |  |  |  |  |  |  |  |  |  | sensitivity | differential inhibition of Akt phosphorylation at serine 473 over threonine 308 |
